Experimental data from the NIST ThermoML archive (doi:10.1021/je049776w).
Numbers after ± are expanded uncertainties.

Experiment: xn = mol fraction of the nth substance listed
Details: 101.3 kPa, Liquid

Cc1ccc(C)cc1 [1,4-dimethylbenzene] + CCCCCCCC
Details	mass density [kg/m3]	viscosity [mPa·s]
298.15 K, x1 = 0.1068	712.9 ± 1.2	0.5185 ± 0.015
298.15 K, x1 = 0.2121	726.39 ± 1.1	0.5172 ± 0.015
298.15 K, x1 = 0.3156	740.39 ± 1.1	0.5216 ± 0.015
298.15 K, x1 = 0.4178	755.01 ± 1	0.5273 ± 0.015
298.15 K, x1 = 0.5184	770.21 ± 0.99	0.5297 ± 0.015
298.15 K, x1 = 0.6174	786.05 ± 0.93	0.5393 ± 0.015
298.15 K, x1 = 0.7152	802.61 ± 0.88	0.5515 ± 0.015
298.15 K, x1 = 0.8113	819.83 ± 0.82	0.5678 ± 0.015
298.15 K, x1 = 0.9065	837.91 ± 0.76	0.5905 ± 0.016
298.15 K, x1 = 1	856.7 ± 0.7	0.6162 ± 0.017
303.15 K, x1 = 0.1068	708.71 ± 1.2	0.4829 ± 0.014
303.15 K, x1 = 0.2121	722.17 ± 1.1	0.4825 ± 0.014
303.15 K, x1 = 0.3156	736.15 ± 1.1	0.4833 ± 0.014
303.15 K, x1 = 0.4178	750.77 ± 1.1	0.4919 ± 0.014
303.15 K, x1 = 0.5184	765.93 ± 1	0.493 ± 0.014
303.15 K, x1 = 0.6174	781.76 ± 0.95	0.502 ± 0.014
303.15 K, x1 = 0.7152	798.3 ± 0.89	0.5139 ± 0.014
303.15 K, x1 = 0.8113	815.51 ± 0.84	0.5299 ± 0.015
303.15 K, x1 = 0.9065	833.52 ± 0.78	0.5489 ± 0.015
303.15 K, x1 = 1	852.35 ± 0.72	0.5715 ± 0.015
313.15 K, x1 = 0.1068	700.44 ± 1.2	0.4298 ± 0.013
313.15 K, x1 = 0.2121	713.85 ± 1.2	0.4298 ± 0.013
313.15 K, x1 = 0.3156	727.78 ± 1.1	0.4331 ± 0.013
313.15 K, x1 = 0.4178	742.31 ± 1.1	0.4373 ± 0.013
313.15 K, x1 = 0.5184	757.45 ± 1	0.4418 ± 0.013
313.15 K, x1 = 0.6174	773.23 ± 0.97	0.4483 ± 0.013
313.15 K, x1 = 0.7152	789.72 ± 0.92	0.4586 ± 0.013
313.15 K, x1 = 0.8113	806.89 ± 0.86	0.4722 ± 0.014
313.15 K, x1 = 0.9065	824.89 ± 0.8	0.4895 ± 0.014
313.15 K, x1 = 1	843.64 ± 0.74	0.508 ± 0.014
323.15 K, x1 = 0.1068	692.26 ± 1.2	0.3877 ± 0.012
323.15 K, x1 = 0.2121	705.6 ± 1.2	0.3903 ± 0.012
323.15 K, x1 = 0.3156	719.47 ± 1.1	0.3901 ± 0.012
323.15 K, x1 = 0.4178	733.93 ± 1.1	0.3952 ± 0.012
323.15 K, x1 = 0.5184	749.01 ± 1.1	0.3997 ± 0.012
323.15 K, x1 = 0.6174	764.73 ± 1	0.4057 ± 0.012
323.15 K, x1 = 0.7152	781.17 ± 0.94	0.4143 ± 0.013
323.15 K, x1 = 0.8113	798.31 ± 0.89	0.4269 ± 0.013
323.15 K, x1 = 0.9065	816.2 ± 0.83	0.4409 ± 0.013
323.15 K, x1 = 1	834.9 ± 0.77	0.4599 ± 0.013
333.15 K, x1 = 0.1068	683.83 ± 1.3	0.3528 ± 0.012
333.15 K, x1 = 0.2121	697.15 ± 1.2	0.3552 ± 0.012
333.15 K, x1 = 0.3156	710.96 ± 1.2	0.3571 ± 0.012
333.15 K, x1 = 0.4178	725.38 ± 1.1	0.3617 ± 0.012
333.15 K, x1 = 0.5184	740.41 ± 1.1	0.3671 ± 0.012
333.15 K, x1 = 0.6174	756.08 ± 1	0.3753 ± 0.012
333.15 K, x1 = 0.7152	772.47 ± 0.97	0.3858 ± 0.012
333.15 K, x1 = 0.8113	789.52 ± 0.92	0.3961 ± 0.012
333.15 K, x1 = 0.9065	807.43 ± 0.86	0.4138 ± 0.013
333.15 K, x1 = 1	826.09 ± 0.8	0.4298 ± 0.013
343.15 K, x1 = 0.1068	675.29 ± 1.3	0.3167 ± 0.011
343.15 K, x1 = 0.2121	688.57 ± 1.2	0.3164 ± 0.011
343.15 K, x1 = 0.3156	702.32 ± 1.2	0.3185 ± 0.011
343.15 K, x1 = 0.4178	716.69 ± 1.1	0.3223 ± 0.011
343.15 K, x1 = 0.5184	731.68 ± 1.1	0.3271 ± 0.011
343.15 K, x1 = 0.6174	747.3 ± 1.1	0.3329 ± 0.011
343.15 K, x1 = 0.7152	763.64 ± 1	0.341 ± 0.011
343.15 K, x1 = 0.8113	780.65 ± 0.94	0.3481 ± 0.011
343.15 K, x1 = 0.9065	798.53 ± 0.89	0.3588 ± 0.012
343.15 K, x1 = 1	817.17 ± 0.83	0.3783 ± 0.012
353.15 K, x1 = 0.1068	666.51 ± 1.3	0.2856 ± 0.01
353.15 K, x1 = 0.2121	679.75 ± 1.3	0.2877 ± 0.01
353.15 K, x1 = 0.3156	693.48 ± 1.2	0.2897 ± 0.01
353.15 K, x1 = 0.4178	707.82 ± 1.2	0.2939 ± 0.011
353.15 K, x1 = 0.5184	722.78 ± 1.1	0.2984 ± 0.011
353.15 K, x1 = 0.6174	738.37 ± 1.1	0.3016 ± 0.011
353.15 K, x1 = 0.7152	754.7 ± 1	0.3113 ± 0.011
353.15 K, x1 = 0.8113	771.7 ± 0.97	0.3174 ± 0.011
353.15 K, x1 = 0.9065	789.57 ± 0.91	0.3264 ± 0.011
353.15 K, x1 = 1	808.22 ± 0.85	0.3382 ± 0.011

Cc1ccc(C)cc1 [1,4-dimethylbenzene] + CCCCCCC
Details	mass density [kg/m3]	viscosity [mPa·s]
298.15 K, x1 = 0.0948	694.32 ± 1.2	0.4074 ± 0.013
298.15 K, x1 = 0.1911	709.39 ± 1.2	0.4176 ± 0.013
298.15 K, x1 = 0.288	725.04 ± 1.1	0.4295 ± 0.013
298.15 K, x1 = 0.3865	741.5 ± 1.1	0.4436 ± 0.013
298.15 K, x1 = 0.4856	758.54 ± 1	0.4598 ± 0.013
298.15 K, x1 = 0.5861	776.51 ± 0.96	0.4807 ± 0.014
298.15 K, x1 = 0.6877	795.16 ± 0.9	0.5047 ± 0.014
298.15 K, x1 = 0.7906	814.74 ± 0.84	0.5331 ± 0.015
298.15 K, x1 = 0.8949	835.24 ± 0.77	0.5714 ± 0.016
298.15 K, x1 = 1	856.7 ± 0.7	0.6162 ± 0.017
303.15 K, x1 = 0.0948	690.05 ± 1.2	0.382 ± 0.012
303.15 K, x1 = 0.1911	705.12 ± 1.2	0.3912 ± 0.012
303.15 K, x1 = 0.288	720.75 ± 1.1	0.4019 ± 0.012
303.15 K, x1 = 0.3865	737.2 ± 1.1	0.4154 ± 0.013
303.15 K, x1 = 0.4856	754.24 ± 1	0.4304 ± 0.013
303.15 K, x1 = 0.5861	772.19 ± 0.97	0.4496 ± 0.013
303.15 K, x1 = 0.6877	790.83 ± 0.91	0.4716 ± 0.014
303.15 K, x1 = 0.7906	810.42 ± 0.85	0.4979 ± 0.014
303.15 K, x1 = 0.8949	830.91 ± 0.78	0.5308 ± 0.015
303.15 K, x1 = 1	852.35 ± 0.72	0.5715 ± 0.015
313.15 K, x1 = 0.0948	681.45 ± 1.3	0.344 ± 0.011
313.15 K, x1 = 0.1911	696.52 ± 1.2	0.3523 ± 0.011
313.15 K, x1 = 0.288	712.12 ± 1.2	0.3623 ± 0.012
313.15 K, x1 = 0.3865	728.57 ± 1.1	0.374 ± 0.012
313.15 K, x1 = 0.4856	745.57 ± 1.1	0.3865 ± 0.012
313.15 K, x1 = 0.5861	763.52 ± 1	0.4034 ± 0.012
313.15 K, x1 = 0.6877	782.15 ± 0.94	0.4234 ± 0.013
313.15 K, x1 = 0.7906	801.71 ± 0.88	0.444 ± 0.013
313.15 K, x1 = 0.8949	822.21 ± 0.81	0.4729 ± 0.014
313.15 K, x1 = 1	843.64 ± 0.74	0.508 ± 0.014
323.15 K, x1 = 0.0948	672.73 ± 1.3	0.3136 ± 0.011
323.15 K, x1 = 0.1911	687.79 ± 1.2	0.3211 ± 0.011
323.15 K, x1 = 0.288	703.38 ± 1.2	0.3304 ± 0.011
323.15 K, x1 = 0.3865	719.83 ± 1.1	0.3408 ± 0.011
323.15 K, x1 = 0.4856	736.82 ± 1.1	0.3529 ± 0.011
323.15 K, x1 = 0.5861	754.77 ± 1	0.3683 ± 0.012
323.15 K, x1 = 0.6877	773.41 ± 0.97	0.3835 ± 0.012
323.15 K, x1 = 0.7906	792.97 ± 0.9	0.4041 ± 0.012
323.15 K, x1 = 0.8949	813.45 ± 0.84	0.4285 ± 0.013
323.15 K, x1 = 1	834.9 ± 0.77	0.4599 ± 0.013
333.15 K, x1 = 0.0948	663.88 ± 1.3	0.2848 ± 0.01
333.15 K, x1 = 0.1911	678.95 ± 1.3	0.2922 ± 0.01
333.15 K, x1 = 0.288	694.52 ± 1.2	0.2997 ± 0.011
333.15 K, x1 = 0.3865	710.98 ± 1.2	0.3097 ± 0.011
333.15 K, x1 = 0.4856	727.97 ± 1.1	0.3201 ± 0.011
333.15 K, x1 = 0.5861	745.92 ± 1.1	0.3345 ± 0.011
333.15 K, x1 = 0.6877	764.57 ± 0.99	0.3537 ± 0.011
333.15 K, x1 = 0.7906	784.15 ± 0.93	0.3712 ± 0.012
333.15 K, x1 = 0.8949	804.64 ± 0.87	0.3973 ± 0.012
333.15 K, x1 = 1	826.09 ± 0.8	0.4298 ± 0.013
343.15 K, x1 = 0.0948	654.83 ± 1.3	0.2612 ± 0.01
343.15 K, x1 = 0.1911	669.89 ± 1.3	0.2658 ± 0.01
343.15 K, x1 = 0.288	685.48 ± 1.2	0.273 ± 0.01
343.15 K, x1 = 0.3865	701.94 ± 1.2	0.2818 ± 0.01
343.15 K, x1 = 0.4856	718.94 ± 1.1	0.2915 ± 0.01
343.15 K, x1 = 0.5861	736.91 ± 1.1	0.303 ± 0.011
343.15 K, x1 = 0.6877	755.57 ± 1	0.3166 ± 0.011
343.15 K, x1 = 0.7906	775.17 ± 0.96	0.3317 ± 0.011
343.15 K, x1 = 0.8949	795.69 ± 0.89	0.3498 ± 0.011
343.15 K, x1 = 1	817.17 ± 0.83	0.3783 ± 0.012
